Results as given in US20220323521A1, “Compositions and Uses for Engineered Therapeutic Microbes and Associated Receptors” (The Brigham and Women`s Hospital, Inc., priority 2019, published 2022).

What was measured:
human P2Y2 receptor [1] = experiment: Flow cytometry evaluation of response to ATP and UTP (pFUS1-mCherry mating pathway reporter in yeast strain BS016); format: cell-based; conditions: for Follow-up Test Results: response/sensitivity to ATP versus WT, post-sorting follow-up; for ATP Linear Range μM / ATP Max Response (±SE) / ATP Dynamic Range / ATP Linear Range: ligand eATP; for ATP Max Response (±SE) / UTP Max Response (±SE): normalized to maximum mating pathway activation by WT human P2Y2 receptor with eATP; for ATP Dynamic Range / UTP Dynamic Range: ratio of highest fluorescence versus 10% signal saturation; for UTP Max Response (±SE): unit assumed; for signaling in the absence of agonist (constitutive activity): no agonist
Procedure: (§1) Flow cytometry evaluation of response to ATP and UTP. Yeast strain BS016 transformed with a human P2Y2 gene in the pRS316 pTDH3 vector was grown in SC-URA liquid media overnight. The same strain transformed with a plasmid not containing a P2Y2 sequence (Vector) was used as a negative control. Cells were diluted to OD600 0.05 in 600 μL SC-URA containing ATP (0-25.6 mM; pH 7.0, Bio Basic) or UTP (0-3.2 mM; pH 7.0, Sigma-Aldrich) and incubated for 6 hours at 30° C. Cells were then treated with cycloheximide to a final concentration of 10 μg/mL. The mCherry signal of at least 10,000 cells was measured for each sample with a Miltenyi Biotec MACSQuant VYB. The mean mCherry fluorescence was determined using FlowJo. For dose-response assays, data was fitted with the “log(agonist) vs. response—Variable slope (four parameters)” model in Prism (GraphPad). After subtracting the mCherry fluorescence signal of the Vector control, fluorescence values were normalized to the wild-type P2Y2 control used in the same experiment, to allow comparisons between experiments performed on different days.
(§2) Directed evolution of human P2Y2 receptor. Error-prone PCR mutagenesis was performed using the Agilent GeneMorph II Random Mutagenesis Kit with yeast codon-optimized human P2Y2 as a template, using previously described methods (104). 150 ng of template DNA and 30 cycles achieved the desired mutation rate of ˜3 mutations per P2Y2 gene, determined by sequencing 12 randomly selected plasmids (Table 2). The random mutants were inserted into pRS316 pTDH3 using AarI-based cloning and transformed into NEB 5-alpha competent E. coli cells (New England Biolabs) generating >15,000 individual colonies. Cells were scraped off agar plates, mixed together, and plasmid DNA was extracted (QIAQuick Spin Miniprep Kit, Qiagen) to create the final plasmid library. The library was transformed into yeast strain BS016 using a high-efficiency lithium acetate-based method (105), yielding at least 10-fold the number of colonies as the total library size, so that each mutant would be screened multiple times. Transformed cells were incubated overnight, then diluted to OD600 0.05 into fresh 100 mL SC-URA liquid media containing 100 μM ATP (pH 7.0, Biobasic), and incubated for either 18 or 6 hours at 30° C. (FIG. 8). After brief sonication, 10^6-10^7 cells were gated by side and forward scatter and sorted for the highest ˜1% of mCherry signal using a BD Influx cell sorter (106). A total of 174 yeast colonies recovered from various sorting experiments were individually screened for their response to 100 μM UTP, 100 μM ATP, or with no ligand, after a 6-hour incubation. Plasmids were isolated from selected colonies by first incubating with zymolase (BioShop Canada) then extracting plasmid DNA (QIAQuick Spin Miniprep Kit, Qiagen). Plasmid DNA was amplified using NEB 5-alpha competent E. coli cells (New England Biolabs), the plasmid DNA was sequenced, and fresh BS016 yeast cells were transformed for dose-response experiments.
(§3) Maximum response values were normalized to the maximum mating pathway activation provided by the WT human P2Y2 receptor incubated with eATP. Dynamic range was the ratio of the highest fluorescence obtained in the presence of the indicated ligand versus 10% signal saturation. Linear range was the series of ligand concentrations for which a change in signal can be detected. The minimum limit of the linear range was estimated as the ligand concentration corresponding to 10% signal saturation. Data represents the mean of six colonies for eATP, three colonies for eUTP.

human P2Y2 receptor [2] = molecular target: T1, human P2Y2 receptor (Homo sapiens, UniProt P41231); experiment: as above; format: cell-based; conditions: for EC50: agonist on WT human P2Y2 in Gpa1-Gαi3 pFUS1-mCherry strain
T1 construct: expressed in transfected cells; host or cells: Saccharomyces cerevisiae strain BS016 (Gpa1-Gαi3 chimera, pFUS1-mCherry reporter), plasmid pRS316 pTDH3
T1 sequence (P41231 whole entry): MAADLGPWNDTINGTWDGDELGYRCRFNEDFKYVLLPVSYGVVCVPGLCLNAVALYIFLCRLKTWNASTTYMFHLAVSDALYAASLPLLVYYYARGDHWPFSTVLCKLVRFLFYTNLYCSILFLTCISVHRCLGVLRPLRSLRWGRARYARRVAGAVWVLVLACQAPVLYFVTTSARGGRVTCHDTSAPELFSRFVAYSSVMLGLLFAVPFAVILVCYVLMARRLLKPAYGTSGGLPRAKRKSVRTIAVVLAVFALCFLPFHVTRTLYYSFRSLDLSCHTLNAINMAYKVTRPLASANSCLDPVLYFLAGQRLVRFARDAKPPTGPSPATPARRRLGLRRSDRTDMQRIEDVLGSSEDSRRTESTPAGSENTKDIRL
Procedure: as §1, §2, §3

[3] = ligand concentrations for which a change in signal can be detected
[4] = ligand eUTP, ligand concentrations for which a change in signal can be detected

Row | Follow-up Test Results (human P2Y2 receptor [1]) | EC50 (human P2Y2 receptor [2]) [µM] | ATP Linear Range μM (human P2Y2 receptor [1]; [3]) | ATP Max Response (±SE) (human P2Y2 receptor [1]) [%] | ATP Dynamic Range (human P2Y2 receptor [1]) | UTP Linear Range (human P2Y2 receptor [1]; [4]) [µM] | UTP Max Response (±SE) (human P2Y2 receptor [1]; ligand eUTP) [%] | UTP Dynamic Range (human P2Y2 receptor [1]; ligand eUTP) | ATP Linear Range (human P2Y2 receptor [1]; [3]) [µM] | UTP Linear Range μM (human P2Y2 receptor [1]; [4]) | response to 100 μM eATP (mCherry expression) (human P2Y2 receptor [2]; 100 μM eATP) | Molecule | signaling in the absence of agonist (constitutive activity) (human P2Y2 receptor [1])
1 | No different than WT, not selected for |  |  |  |  |  |  |  |  |  |  | 6R1-2: human P2Y2 receptor mutant I214T [Mutant 6R1-2] | 
2 | No different than WT, not selected for |  |  |  |  |  |  |  |  |  |  | 18R2-2: human P2Y2 receptor mutant L112S A176V [Mutant 18R2-2] | 
3 | No different than WT, not selected for |  |  |  |  |  |  |  |  |  |  | 18R2-23: human P2Y2 receptor mutant V250A [Mutant 18R2-23] | 
4 |  | 1860 |  |  |  |  |  |  |  |  |  | Nc1ncnc2c1ncn2[C@@H]1O[C@H](COP(=O)(O)OP(=O)(O)OP(=O)(O)O)[C@@H](O)[C@H]1O [eATP, adenosine triphosphate, reference compound] | 
5 |  | 123 |  |  |  |  |  |  |  |  |  | O=c1ccn([C@@H]2O[C@H](COP(=O)(O)OP(=O)(O)OP(=O)(O)O)[C@@H](O)[C@H]2O)c(=O)[nH]1 [eUTP, uridine triphosphate, reference compound] | 
6 |  |  | 4-4,966 μM | 122 | 9 | 0.05 to 22 | 101 | 6 |  |  |  | H1-2: human P2Y2 receptor mutant F58L [Mutant H1-2] | 
7 |  |  | 4-3,945 μM | 152 | 10 | 0.4 to 550 | 122 | 8 |  |  |  | H1-3: human P2Y2 receptor mutant F58I [Mutant H1-3] | 
8 |  |  | 5-3,882 μM | 110 | 9 | 0.2 to 61 | 96 | 7 |  |  |  | H1-4: human P2Y2 receptor mutant F58L S359P [Mutant H1-4] | 
9 |  |  |  | 181 | 3 | 0.02 to 3.1 | 199 | 3 | 0.3 to 18 |  |  | H7-1: human P2Y2 receptor mutant K240N F307S [Mutant H7-1] | increased responsiveness and signaling in the absence of agonist (constitutive activity)
10 |  |  | 3-2,243 μM | 165 | 9 | 0.9 to 169 | 143 | 8 |  |  |  | TM-2: human P2Y2 receptor mutant L59I C119S | 
11 |  |  |  | 110 | 5 | 0.04 to 63 | 86 | 5 | 0.9 to 284 |  |  | TM-3: human P2Y2 receptor mutant N116S | increased responsiveness and signaling in the absence of agonist (constitutive activity)
12 |  |  | 0.5-8,950^ μM | 137 | 10 | 0.07 to 31 | 69 | 7 |  |  |  | TM-4: human P2Y2 receptor mutant L162I Q165H | 
13 |  |  | 113-25,600 μM | 100 | 8 |  | 98 | 9 |  | 4-1,374 μM | weak response | WT: wild-type human P2Y2 receptor (NP_002555.4), yeast codon-optimized [reference compound] | 
14 |  |  |  | 90 | 2 | 0.01 to 6 | 84 | 3 | 0.3 to 23 |  |  | H7-2: human P2Y2 receptor mutant A76T A229V F307S (protein, UniProt P41231 1-377, looked up, variant A76T A229V F307S) P2Y purinoceptor 2: MAADLGPWNDTINGTWDGDELGYRCRFNEDFKYVLLPVSYGVVCVPGLCLNAVALYIFLCRLKTWNASTTYMFHLTVSDALYAASLPLLVYYYARGDHWPFSTVLCKLVRFLFYTNLYCSILFLTCISVHRCLGVLRPLRSLRWGRARYARRVAGAVWVLVLACQAPVLYFVTTSARGGRVTCHDTSAPELFSRFVAYSSVMLGLLFAVPFAVILVCYVLMARRLLKPVYGTSGGLPRAKRKSVRTIAVVLAVFALCFLPFHVTRTLYYSFRSLDLSCHTLNAINMAYKVTRPLASANSCLDPVLYSLAGQRLVRFARDAKPPTGPSPATPARRRLGLRRSDRTDMQRIEDVLGSSEDSRRTESTPAGSENTKDIRL | increased responsiveness and signaling in the absence of agonist (constitutive activity)
15 | inconsistent results |  |  |  |  |  |  |  |  |  |  | 18R2-18: human P2Y2 receptor mutant W16R V90A A295V (protein, UniProt P41231 1-377, looked up, variant W16R V90A A295V) P2Y purinoceptor 2: MAADLGPWNDTINGTRDGDELGYRCRFNEDFKYVLLPVSYGVVCVPGLCLNAVALYIFLCRLKTWNASTTYMFHLAVSDALYAASLPLLAYYYARGDHWPFSTVLCKLVRFLFYTNLYCSILFLTCISVHRCLGVLRPLRSLRWGRARYARRVAGAVWVLVLACQAPVLYFVTTSARGGRVTCHDTSAPELFSRFVAYSSVMLGLLFAVPFAVILVCYVLMARRLLKPAYGTSGGLPRAKRKSVRTIAVVLAVFALCFLPFHVTRTLYYSFRSLDLSCHTLNAINMAYKVTRPLVSANSCLDPVLYFLAGQRLVRFARDAKPPTGPSPATPARRRLGLRRSDRTDMQRIEDVLGSSEDSRRTESTPAGSENTKDIRL | 
16 |  |  |  | 149 | 5 | 0.05 to 12 | 128 | 4 | 0.5 to 184 |  |  | H1-1: human P2Y2 receptor mutant F58C C60Y G310A (protein, UniProt P41231 1-377, looked up, variant F58C C60Y G310A) P2Y purinoceptor 2: MAADLGPWNDTINGTWDGDELGYRCRFNEDFKYVLLPVSYGVVCVPGLCLNAVALYICLYRLKTWNASTTYMFHLAVSDALYAASLPLLVYYYARGDHWPFSTVLCKLVRFLFYTNLYCSILFLTCISVHRCLGVLRPLRSLRWGRARYARRVAGAVWVLVLACQAPVLYFVTTSARGGRVTCHDTSAPELFSRFVAYSSVMLGLLFAVPFAVILVCYVLMARRLLKPAYGTSGGLPRAKRKSVRTIAVVLAVFALCFLPFHVTRTLYYSFRSLDLSCHTLNAINMAYKVTRPLASANSCLDPVLYFLAAQRLVRFARDAKPPTGPSPATPARRRLGLRRSDRTDMQRIEDVLGSSEDSRRTESTPAGSENTKDIRL | 
